Starred links: 1 amine or outer side, 2 acyl side, 3 side chain; linkers in the order of their positions; H or OH if unused. Positions of bridges follow the written chain, without caps; N, C: chain ends. Non-standard residues stand in square brackets, D forms with d. Residues, ends and D or L forms follow the SMILES beside them. *: point of attachment. Trp(7-(3-AcNH-Ph)) = CC(=O)Nc1cccc(-c2cccc3c(C[C@H](N)C(=O)O)c[nH]c23)c1; X36 = C[N+]1(CCCc2cn(-c3ccc(C[C@H](N[*:1])C(=O)[*:2])cc3)nn2)CCOCC1; X33 = C[N+](C)(C)CCCCc1cn(-c2ccc(C[C@H](N[*:1])C(=O)[*:2])cc2)nn1; X16 = C[N+](C)(C)Cc1cn(-c2ccc(C[C@H](N[*:1])C(=O)[*:2])cc2)nn1; Me3N+(CH2)2O(CH2)2O(CH2)2CO = C[N+](C)(C)CCOCCOCCC(=O)*; Trp(7-Me) = Cc1cccc2c(C[C@H](N)C(=O)O)c[nH]c12; dLys(Me3) = C[N+](C)(C)CCCC[C@@H](N)C(=O)O; 2Nal = N[C@@H](Cc1ccc2ccccc2c1)C(=O)O; AEF = NCCOc1ccc(C[C@H](N)C(=O)O)cc1; X22 = CN1CC[N+](C)(CCOCCOCC*)CC1; 3Pal = N[C@@H](Cc1cccnc1)C(=O)O; X7 = COCCOCCOCCOCCOCCOCCC(=O)*; Pen = CC(C)(S)[C@H](N)C(=O)O; Thp = NC1(C(=O)O)CCOCC1; X17 = C[N+]1(CC*)CCOCC1; X3 = C[N+](C)(C)CCCCC*; Sar = CNCC(=O)O
Legend:
IL-23R = molecular target: T1, IL-23R (Homo sapiens, UniProt Q5VWK5); assay: IL23R Reporter Assay; assay type: cell-based; conditions: HEK293 cells containing IL-23R, IL-12RP1 and STAT-inducible firefly luciferase reporter; 10 ng/mL IL-23 (EC90); 5 h at 37° C.; read-out: IL23R Reporter Assay
T1 construct: host or cells: HEK293
T1 sequence (Q5VWK5 24-629): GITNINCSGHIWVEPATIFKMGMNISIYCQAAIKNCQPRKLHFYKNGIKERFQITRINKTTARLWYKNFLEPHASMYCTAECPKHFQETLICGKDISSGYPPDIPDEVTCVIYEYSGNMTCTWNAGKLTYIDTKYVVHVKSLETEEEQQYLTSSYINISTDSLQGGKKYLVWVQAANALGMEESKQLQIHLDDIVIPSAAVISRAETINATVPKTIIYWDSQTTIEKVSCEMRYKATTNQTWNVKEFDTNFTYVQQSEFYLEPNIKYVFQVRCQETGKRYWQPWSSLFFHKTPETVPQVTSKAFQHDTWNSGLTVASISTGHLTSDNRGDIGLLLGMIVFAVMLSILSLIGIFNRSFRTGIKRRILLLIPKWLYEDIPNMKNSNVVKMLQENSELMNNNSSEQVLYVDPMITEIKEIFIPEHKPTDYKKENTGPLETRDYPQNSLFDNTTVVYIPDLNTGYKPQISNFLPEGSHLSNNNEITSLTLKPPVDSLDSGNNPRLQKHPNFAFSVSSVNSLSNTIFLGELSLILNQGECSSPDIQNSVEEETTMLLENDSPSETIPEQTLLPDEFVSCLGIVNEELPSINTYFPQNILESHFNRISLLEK

[1] = Exposed Polar Surface Area (EPSA); assay type: physicochemical; conditions: SFC on Chirex 3014 column; sample 1 mM DMSO stock; read-out: EPSA
How it was run: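 Compounds, as 1 mM DMSO stock, were injected in duplicate onto an SFC Chirex 3014 column at 35 °C and eluted with a CO2/methanol (20 mM ammonium formate) gradient. EPSA values in Å^2 were derived from retention times using a linear fit to eight calibration standards, reinjected every 20 compounds.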

An IC50 (IL-23R) of 1.8 nM and an EPSA [1] of 192 A^2 were found for `COCCOCCOCCOCCOCCOCCC(=O)N[C@H](CCCNC(=N)N)C(=O)N[C@@H]1C(=O)N[C@@H](CC(N)=O)C(=O)N[C@@H]([C@@H](C)O)C(=O)N[C@@H](Cc2c[nH]c3c(-c4cccc(NC(C)=O)c4)cccc23)C(=O)N[C@@H](CCCCNC(C)=O)C(=O)N[C@H](C(=O)N[C@@H](Cc2ccc(OCCN)cc2)C(=O)N[C@@H](Cc2ccc3ccccc3c2)C(=O)NC2(C(=O)N[C@@H](CCC(=O)O)C(=O)N[C@@H](CC(N)=O)C(=O)N[C@@H](Cc3cccnc3)C(=O)N(C)CC(N)=O)CCOCC2)C(C)(C)SSC1(C)C` [compound 422] (X7-[dR][Pen]NT[Trp(7-(3-AcNH-Ph))]K(Ac)[Pen][AEF][2Nal][Thp]EN[3Pal][Sar]-NH2; disulfide 2-7 (inferred)) in this work.
An IC50 (IL-23R) of 2.6 nM and an EPSA [1] of 165 A^2 were found for `CC(=O)NCCCC[C@@H]1NC(=O)[C@H](Cc2c[nH]c3c(C)cccc23)NC(=O)[C@H]([C@@H](C)O)NC(=O)[C@H](CC(N)=O)NC(=O)[C@@H](NC(=O)CCOCCOCC[N+](C)(C)C)C(C)(C)SSC(C)(C)[C@@H](C(=O)N[C@@H](Cc2ccc(-n3cc(CCCC[N+](C)(C)C)nn3)cc2)C(=O)N[C@@H](Cc2ccc3ccccc3c2)C(=O)NC2(C(=O)N[C@@H](CCCCNC(C)=O)C(=O)N[C@@H](CC(N)=O)C(=O)N[C@@H](Cc3cccnc3)C(=O)N(C)CC(N)=O)CCOCC2)NC1=O` [compound 424, cPEG3aCO-Pen(3)-N-T-7MeW-K(Ac)-Pen(3)-F(4TzlTMA4)-2Nal-THP-K(Ac)-N-3Pya-Sar-CONH2] ({Me3N+(CH2)2O(CH2)2O(CH2)2CO}-[Pen]NT[Trp(7-Me)]K(Ac)[Pen][X33][2Nal][Thp]K(Ac)N[3Pal][Sar]-NH2; disulfide 1-6) in this work.
An IC50 (IL-23R) of 1.6 nM and an EPSA [1] of 163 A^2 were found for `CC(=O)NCCCC[C@@H]1NC(=O)[C@H](Cc2c[nH]c3c(C)cccc23)NC(=O)[C@H]([C@@H](C)O)NC(=O)[C@H](CC(N)=O)NC(=O)[C@@H](NC(C)=O)C(C)(C)SSC(C)(C)[C@@H](C(=O)N[C@@H](Cc2ccc(-n3cc(C[N+](C)(C)C)nn3)cc2)C(=O)N[C@@H](Cc2ccc3ccccc3c2)C(=O)NC2(C(=O)N[C@@H](CCCCNC(C)=O)C(=O)N[C@@H](CC(N)=O)C(=O)N[C@@H](Cc3cccnc3)C(=O)N(C)CC(N)=O)CCOCC2)NC1=O` [compound 426] (Ac-[Pen]NT[Trp(7-Me)]K(Ac)[Pen][X16][2Nal][Thp]K(Ac)N[3Pal][Sar]-NH2; disulfide 1-6 (inferred)) in this work.
An IC50 (IL-23R) of 3.5 nM and an EPSA [1] of 161 A^2 were found for `CC(=O)NCCCC[C@@H]1NC(=O)[C@H](Cc2c[nH]c3c(C)cccc23)NC(=O)[C@H]([C@@H](C)O)NC(=O)[C@H](CC(N)=O)NC(=O)[C@@H](NC(=O)CCOCCOCC[N+](C)(C)C)C(C)(C)SSC(C)(C)[C@@H](C(=O)N[C@@H](Cc2ccc(OCCCCC[N+](C)(C)C)cc2)C(=O)N[C@@H](Cc2ccc3ccccc3c2)C(=O)NC2(C(=O)N[C@@H](CCCCNC(C)=O)C(=O)N[C@@H](CC(N)=O)C(=O)N[C@@H](Cc3cccnc3)C(=O)N(C)CC(N)=O)CCOCC2)NC1=O` [compound 428, cPEG3aCO-Pen(3)-N-T-7MeW-K(Ac)-Pen(3)-TMAPF-2Nal-THP-K(Ac)-N-3Pya-Sar-CONH2] ({Me3N+(CH2)2O(CH2)2O(CH2)2CO}-[Pen]NT[Trp(7-Me)]K(Ac)[Pen]Y(X3)[2Nal][Thp]K(Ac)N[3Pal][Sar]-NH2; disulfide 1-6) in this work.
An IC50 (IL-23R) of 2.6 nM and an EPSA [1] of 167 A^2 were found for `CC(=O)NCCCC[C@@H]1NC(=O)[C@H](Cc2c[nH]c3c(C)cccc23)NC(=O)[C@H]([C@@H](C)O)NC(=O)[C@H](CC(N)=O)NC(=O)[C@@H](NC(C)=O)C(C)(C)SSC(C)(C)[C@@H](C(=O)N[C@@H](Cc2ccc(OCCCCC[N+](C)(C)C)cc2)C(=O)N[C@@H](Cc2ccc3ccccc3c2)C(=O)NC2(C(=O)N[C@@H](CCC(=O)O)C(=O)N[C@@H](CC(N)=O)C(=O)N[C@@H](Cc3cccnc3)C(=O)N(C)CC(N)=O)CCOCC2)NC1=O` [compound 430, MeCO-Pen(3)-N-T-7MeW-K(Ac)-Pen(3)-TMAPF-2Nal-THP-E-N-3Pya-Sar-CONH2] (Ac-[Pen]NT[Trp(7-Me)]K(Ac)[Pen]Y(X3)[2Nal][Thp]EN[3Pal][Sar]-NH2; disulfide 1-6 (inferred)) in this work.
An IC50 (IL-23R) of 3.1 nM and an EPSA [1] of 156 A^2 were found for `CC(=O)NCCCC[C@@H]1NC(=O)[C@H](Cc2c[nH]c3c(C)cccc23)NC(=O)[C@H]([C@@H](C)O)NC(=O)[C@H](CC(N)=O)NC(=O)[C@@H](NC(C)=O)C(C)(C)SSC(C)(C)[C@@H](C(=O)N[C@@H](Cc2ccc(OCCOCCOCC[N+]3(C)CCN(C)CC3)cc2)C(=O)N[C@@H](Cc2ccc3ccccc3c2)C(=O)NC2(C(=O)N[C@@H](CCCCNC(C)=O)C(=O)N[C@@H](CC(N)=O)C(=O)N[C@@H](Cc3cccnc3)C(=O)N(C)CC(N)=O)CCOCC2)NC1=O` [compound 434] (Ac-[Pen]NT[Trp(7-Me)]K(Ac)[Pen]Y(X22)[2Nal][Thp]K(Ac)N[3Pal][Sar]-NH2; disulfide 1-6 (inferred)) in this work.
An IC50 (IL-23R) of 1.2 nM and an EPSA [1] of 186 A^2 were found for `CC(=O)NCCCC[C@@H]1NC(=O)[C@H](Cc2c[nH]c3c(C)cccc23)NC(=O)[C@H]([C@@H](C)O)NC(=O)[C@H](CC(N)=O)NC(=O)[C@@H](NC(=O)[C@@H](CCCNC(=N)N)NC(C)=O)C(C)(C)SSC(C)(C)[C@@H](C(=O)N[C@@H](Cc2ccc(OCC[N+]3(C)CCOCC3)cc2)C(=O)N[C@@H](Cc2ccc3ccccc3c2)C(=O)NC2(C(=O)N[C@@H](CCC(=O)O)C(=O)N[C@@H](CC(N)=O)C(=O)N[C@@H](Cc3cccnc3)C(=O)N(C)CC(N)=O)CCOCC2)NC1=O` [compound 437] (Ac-[dR][Pen]NT[Trp(7-Me)]K(Ac)[Pen]Y(X17)[2Nal][Thp]EN[3Pal][Sar]-NH2; disulfide 2-7 (inferred)) in this work.
An IC50 (IL-23R) of 3.4 nM and an EPSA [1] of 167 A^2 were found for `CC(=O)NCCCC[C@@H]1NC(=O)[C@H](Cc2c[nH]c3c(C)cccc23)NC(=O)[C@H]([C@@H](C)O)NC(=O)[C@H](CC(N)=O)NC(=O)[C@@H](NC(=O)CCOCCOCC[N+](C)(C)C)C(C)(C)SSC(C)(C)[C@@H](C(=O)N[C@@H](Cc2ccc(-n3cc(C[N+](C)(C)C)nn3)cc2)C(=O)N[C@@H](Cc2ccc3ccccc3c2)C(=O)NC2(C(=O)N[C@@H](CCCCNC(C)=O)C(=O)N[C@@H](CC(N)=O)C(=O)N[C@@H](Cc3cccnc3)C(=O)N(C)CC(N)=O)CCOCC2)NC1=O` [compound 438, cPEG3aCO-Pen(3)-N-T-7MeW-K(Ac)-Pen(3)-F(4TzlTMA1)-2Nal-THP-K(Ac)-N-3Pya-Sar-CONH2] ({Me3N+(CH2)2O(CH2)2O(CH2)2CO}-[Pen]NT[Trp(7-Me)]K(Ac)[Pen][X16][2Nal][Thp]K(Ac)N[3Pal][Sar]-NH2; disulfide 1-6) in this work.
An IC50 (IL-23R) of 2 nM and an EPSA [1] of 163 A^2 were found for `CC(=O)NCCCC[C@@H]1NC(=O)[C@H](Cc2c[nH]c3c(C)cccc23)NC(=O)[C@H]([C@@H](C)O)NC(=O)[C@H](CC(N)=O)NC(=O)[C@@H](NC(C)=O)C(C)(C)SSC(C)(C)[C@@H](C(=O)N[C@@H](Cc2ccc(-n3cc(CCC[N+]4(C)CCOCC4)nn3)cc2)C(=O)N[C@@H](Cc2ccc3ccccc3c2)C(=O)NC2(C(=O)N[C@@H](CCCCNC(C)=O)C(=O)N[C@@H](CC(N)=O)C(=O)N[C@@H](Cc3cccnc3)C(=O)N(C)CC(N)=O)CCOCC2)NC1=O` [compound 440] (Ac-[Pen]NT[Trp(7-Me)]K(Ac)[Pen][X36][2Nal][Thp]K(Ac)N[3Pal][Sar]-NH2; disulfide 1-6 (inferred)) in this work.
An IC50 (IL-23R) of 2.1 nM and an EPSA [1] of 191 A^2 were found for `CC(=O)NCCCC[C@@H]1NC(=O)[C@H](Cc2c[nH]c3c(-c4cccc(NC(C)=O)c4)cccc23)NC(=O)[C@H]([C@@H](C)O)NC(=O)[C@H](CC(N)=O)NC(=O)[C@@H](NC(=O)CCOCCOCC[N+](C)(C)C)C(C)(C)SSC(C)(C)[C@@H](C(=O)N[C@@H](Cc2ccc(OCCN)cc2)C(=O)N[C@@H](Cc2ccc3ccccc3c2)C(=O)NC2(C(=O)N[C@@H](CCC(=O)O)C(=O)N[C@@H](CC(N)=O)C(=O)N[C@@H](Cc3cccnc3)C(=O)N(C)CC(N)=O)CCOCC2)NC1=O` [compound 443, cPEG3aCO-Pen(3)-N-T-7(3NAcPh)W-K(Ac)-Pen(3)-AEF-2Nal-THP-E-N-3Pya-Sar-CONH2] ({Me3N+(CH2)2O(CH2)2O(CH2)2CO}-[Pen]NT[Trp(7-(3-AcNH-Ph))]K(Ac)[Pen][AEF][2Nal][Thp]EN[3Pal][Sar]-NH2; disulfide 1-6) in this work.
An IC50 (IL-23R) of 2 nM and an EPSA [1] of 171 A^2 were found for `CC(=O)NCCCC[C@@H]1NC(=O)[C@H](Cc2c[nH]c3c(C)cccc23)NC(=O)[C@H]([C@@H](C)O)NC(=O)[C@H](CC(N)=O)NC(=O)[C@@H](NC(=O)[C@@H](CCCC[N+](C)(C)C)NC(C)=O)C(C)(C)SSC(C)(C)[C@@H](C(=O)N[C@@H](Cc2ccc(OCCN)cc2)C(=O)N[C@@H](Cc2ccc3ccccc3c2)C(=O)NC2(C(=O)N[C@@H](CCCCNC(C)=O)C(=O)N[C@@H](CC(N)=O)C(=O)N[C@@H](Cc3cccnc3)C(=O)N(C)CC(N)=O)CCOCC2)NC1=O` [compound 447] (Ac-[dLys(Me3)][Pen]NT[Trp(7-Me)]K(Ac)[Pen][AEF][2Nal][Thp]K(Ac)N[3Pal][Sar]-NH2; disulfide 2-7 (inferred)) in this work.
